Laboratory results reported in patent US20060093597A1, “Methods of treating involuntary facial spasms and facial wrinkles” (priority 2002, published 2006).
Read-outs that look alike come from different tables or passages of the source.

Legend:
[1] = tested on: Botox-induced symptoms; format: in vivo, mouse; details: for reading of Botox-induced muscle weakness after topical DAP: n=7
[2] = tested on: neuromuscular blockade; details: effective-dose comparison with PMB; cited from earlier work
[3] = in vivo; cited from earlier work
[4] = tested on: rat mast cells; details: cited from earlier work
[5] = tested on: mice; details: effective-dose comparison with PMB; cited from earlier work
[6] = tested on: eukaryotic cytotoxicity; details: cited from earlier work
[7] = tested on: various bacteria; details: cited from earlier work

Molecule | reading of Botox-induced muscle weakness after topical DAP ([1]; at 1 hour) | reading of Botox-induced muscle weakness after topical DAP ([1]; at 4 hour) | reading later in the experiment ([1]; mouse, in vivo) | response to topical administration ([1]; mouse, in vivo) | fold less active than PMB in causing neuromuscular blockade [2] [times] | half-life [3] | fold less active than PMB in releasing histamine [4] [time] | fold less toxic than PMB, acute toxicity [5] [times] | fold less toxic than PMB, cytotoxicity [6] [times] | MIC compared to parent molecule PMB [7]
Nc1ccncc1N [DAP, 3,4-diaminopyridine] | 1.5 | 0.75 | the reading went up | rapid response |  |  |  |  |  | 
Polymyxin B nonapeptide [PMBN] |  |  |  |  | 150 | approximately 25 minutes | 25 | 15 | 100 | increased up to thousand folds
